“And” between values parts separate entries of the source, which are not always exact repeats. Equal entries are not always repeated.
Test system: WM3248 melanoma cells, 486 antibodies
Assay: Reverse phase protein arrays (RPPA)
Format: cell-based, Human
Text: Pellets were snap frozen in liquid nitrogen and shipped to MD Anderson Cancer Center core RPPA facility for RPPA analysis (Table S5). Three biological replicates for each sample were generated.
Nomenclatures on the RPPA heatmaps: name_of_antibody.species_of_antibody.status_of_antibody. V - antibody validated; C - validation of antibody in progress; Q - antibody nonspecific; E – under evaluation; antibodies raised in M - mouse, G - goat, R - rabbit, or T - rat.

[1] = 20, replicates 1-3, normalized to 0
[2] = Norm_5: replicates 1-3 and Average, relative to 0

CN(C)c1cccc(Nc2cc(-c3ccccc3)nc(C3CCNCC3)n2)c1 [ARN22089, N1,N1-dimethyl-N3-(6-phenyl-2-(piperidin-4-yl)pyrimidin-4-yl)benzene-1,3-diamine]
HER2.M.V Norm_20 Average (20, average, normalized to 0): 0.995
HER2_pY1248.R.V Norm_20 Average (20, average, normalized to 0): 1.030
HER3.R.V Norm_20 Average (20, average, normalized to 0): 0.904
HER3_pY1289.R.C Norm_20 Average (20, average, normalized to 0): 1.084
Heregulin.R.V Norm_20 Average (20, average, normalized to 0): 1.046
eEF2.R.C Norm_20 Average (20, average, normalized to 0): 1.639
eEF2K.R.V Norm_20 Average (20, average, normalized to 0): 1.409
eIF4E.R.V Norm_20 Average (20, average, normalized to 0): 1.114
eIF4G.R.C Norm_20 Average (20, average, normalized to 0): 1.165
DNMT1.R.V Norm_20 [1]: 0.937 and 0.801
DRP1.R.V Norm_20 [1]: 1.019 and 0.894 and 0.979
DUSP4.R.V Norm_20 [1]: 0.537 and 0.626 and 1.006
DUSP6.R.C Norm_20 [1]: 1.405 and 1.064 and 2.195
DYRK1B.R.C Norm_20 [1]: 0.868 and 0.959 and 0.907
Dvl3.R.V Norm_20 [1]: 0.990 and 1.118 and 0.985
E2F1.R.V Norm_20 [1]: 1.446 and 1.251
E.Cadherin.R.V Norm_20 [1]: 0.696 and 0.873 and 0.994
EGFR.R.V Norm_20 [1]: 1.083 and 1.189 and 1.125
EGFR_pY1068.R.C Norm_20 [1]: 0.892 and 0.889 and 0.961
EGFR_pY1173.R.V Norm_20 [1]: 1.079 and 1.019 and 1.046
EMA.M.C Norm_20 [1]: 0.566 and 0.868 and 0.914
ENY2.M.C Norm_20 [1]: 0.866 and 0.944 and 1.047
ER.a.R.V Norm_20 [1]: 0.939 and 0.862 and 1.078
ER.a_pS118.R.V Norm_20 [1]: 1.167 and 1.838 and 0.928
ERCC1.R.C Norm_20 [1]: 0.964 and 0.974
ERCC5.R.C Norm_20 [1]: 1.290 and 0.989 and 1.051
ERRalpha.R.V Norm_20 [1]: 0.831 and 1.056 and 1.002
EVI1.R.V Norm_20 [1]: 0.975 and 0.917
Enolase.1.R.V Norm_20 [1]: 1.030 and 1.152
Enolase.2.R.V Norm_20 [1]: 0.990 and 0.970 and 0.883
EphA2.R.V Norm_20 [1]: 0.706 and 0.773 and 0.765
EphA2_pS897.R.C Norm_20 [1]: 0.536 and 0.635 and 0.720
EphA2_pY588.R.C Norm_20 [1]: 0.930 and 1.018 and 0.973
Erk5.R.V Norm_20 [1]: 0.948 and 0.789 and 1.013
Ets.1.R.V Norm_20 [1]: 1.373 and 1.347 and 1.417
FABP5.R.C Norm_20 [1]: 1.102 and 1.223 and 1.428
FAK.R.C Norm_20 [1]: 0.837 and 0.917
FAK_pY397.R.V Norm_20 [1]: 0.847 and 0.989 and 0.940
FANCD2.R.V Norm_20 [1]: 0.831 and 0.901 and 0.823
FASN.R.V Norm_20 [1]: 0.802 and 0.983
FGF.basic.R.C Norm_20 [1]: 0.939 and 0.836 and 1.240
FN14.R.C Norm_20 [1]: 1.082 and 0.902 and 1.335
FOXM1.R.V Norm_20 [1]: 0.995 and 0.889 and 0.924
FOXO3.R.V Norm_20 [1]: 1.160 and 1.151 and 0.915
FRS2.alpha_pY196.R.V Norm_20 [1]: 0.925 and 1.195 and 1.058
FTO.R.V Norm_20 [1]: 0.992
Fibronectin.R.V Norm_20 [1]: 1.153 and 1.290 and 1.137
FoxO3a_pS318_S321.R.C Norm_20 [1]: 1.105 and 0.940
G6PD.R.V Norm_20 [1]: 0.877 and 1.061 and 0.923
GATA3.M.V Norm_20 [1]: 1.203 and 1.452 and 1.301
GATA6.R.V Norm_20 [1]: 0.945 and 0.991 and 0.928
GCLC.R.C Norm_20 [1]: 0.882 and 0.967 and 1.220
GCLM.R.V Norm_20 [1]: 0.988 and 1.024 and 0.965
GCN5L2.R.V Norm_20 [1]: 0.974 and 0.944
GGPS1.M.V Norm_20 [1]: 0.920 and 0.992 and 1.155
GRB2.R.V Norm_20 [1]: 0.992 and 0.862 and 0.948
GRB7.R.V Norm_20 [1]: 0.909 and 0.898
GSK.3B.R.C Norm_20 [1]: 0.896 and 0.924
GSK.3a.b.M.V Norm_20 [1]: 0.918 and 0.992
GSK.3a.b_pS21_S9.R.V Norm_20 [1]: 1.411 and 1.207
Gab2.R.V Norm_20 [1]: 1.447 and 1.019
Gli1.R.C Norm_20 [1]: 0.898 and 0.922 and 1.028
Gli3.R.C Norm_20 [1]: 1.237 and 1.346 and 1.321
Glucocorticoid.Receptor.R.V Norm_20 [1]: 1.227 and 1.295 and 0.987
Glutamate.D1.2.R.V Norm_20 [1]: 1.198
Glutaminase.R.C Norm_20 [1]: 1.026 and 1.144 and 1.364
Granzyme.B.R.V Norm_20 [1]: 1.284 and 1.028
Grp75.R.C Norm_20 [1]: 1.594 and 1.052 and 0.939
Gys.R.V Norm_20 [1]: 0.807 and 0.941 and 1.104
Gys_pS641.R.V Norm_20 [1]: 0.671 and 0.818 and 1.079
H2AX_pS139.R.C Norm_20 [1]: 1.188 and 2.081 and 1.030
H2AX_pS140.M.C Norm_20 [1]: 1.001 and 1.667 and 1.028
HER2.M.V Norm_20 [1]: 0.977 and 0.952 and 1.056
HER2_pY1248.R.V Norm_20 [1]: 0.902 and 1.119
HER3.R.V Norm_20 [1]: 0.864 and 0.935 and 0.913
HER3_pY1289.R.C Norm_20 [1]: 1.059 and 1.124
HES1.R.V Norm_20 [1]: 1.224 and 0.849 and 1.063
Heregulin.R.V Norm_20 [1]: 1.048 and 1.050
eEF2.R.C Norm_20 [1]: 1.328 and 1.602 and 1.986
eEF2K.R.V Norm_20 [1]: 1.469 and 1.590 and 1.169
eIF4E.R.V Norm_20 [1]: 1.107 and 0.843 and 1.392
eIF4E_pS209.R.V Norm_20 [1]: 0.954 and 0.835 and 1.321
eIF4G.R.C Norm_20 [1]: 1.493 and 1.003 and 0.999
MYH11.R.C Average (Norm_5, normalized to Norm_0): 1.033
Myosin.IIa.R.C Average (Norm_5, normalized to Norm_0): 0.991
Myosin.IIa_pS1943.R.V Average (Norm_5, normalized to Norm_0): 0.992
Myt1.R.C Average (Norm_5, normalized to Norm_0): 1.030
N.Cadherin.R.V Average (Norm_5, normalized to Norm_0): 0.967
N.Ras.M.V Average (Norm_5, normalized to Norm_0): 0.979
NDRG1_pT346.R.V Average (Norm_5, normalized to Norm_0): 1.270
NDUFB4.R.V Average (Norm_5, normalized to Norm_0): 0.954
NRF2.R.C Average (Norm_5, normalized to Norm_0): 1.024
Notch1.R.V Average (Norm_5, normalized to Norm_0): 0.893
Notch1.cleaved.R.V Average (Norm_5, normalized to Norm_0): 1.048
Notch3.R.C Average (Norm_5, normalized to Norm_0): 0.987
Oct.4.R.C Average (Norm_5, normalized to Norm_0): 1.097
P.Cadherin.R.C Average (Norm_5, normalized to Norm_0): 1.185
PAI.1.M.V Average (Norm_5, normalized to Norm_0): 0.899
PAICS.R.C Average (Norm_5, normalized to Norm_0): 0.934
PAK1.R.V Average (Norm_5, normalized to Norm_0): 0.952
PAK4.R.V Average (Norm_5, normalized to Norm_0): 0.942
PAK_pS474_S602_S560.R.V Average (Norm_5, normalized to Norm_0): 0.943
PAK_pT423_T402.R.C Average (Norm_5, normalized to Norm_0): 0.942
PAR.R.C Average (Norm_5, normalized to Norm_0): 2.806
PARG.R.C Average (Norm_5, normalized to Norm_0): 1.053
PAX6.R.V Average (Norm_5, normalized to Norm_0): 0.980
PAX8.R.C Average (Norm_5, normalized to Norm_0): 0.929
PCNA.M.C Average (Norm_5, normalized to Norm_0): 0.930
PD.1.R.V Average (Norm_5, normalized to Norm_0): 0.933
PD.L1.R.C Average (Norm_5, normalized to Norm_0): 1.049
PDH.M.V Average (Norm_5, normalized to Norm_0): 0.971
PDHA1.R.V Average (Norm_5, normalized to Norm_0): 1.000
PDHK1.R.C Average (Norm_5, normalized to Norm_0): 1.047
PDK1.R.V Average (Norm_5, normalized to Norm_0): 1.053
PDK1_pS241.R.V Average (Norm_5, normalized to Norm_0): 1.123
PEA.15.R.V Average (Norm_5, normalized to Norm_0): 0.989
PEA.15_pS116.R.V Average (Norm_5, normalized to Norm_0): 0.945
PERK.R.V Average (Norm_5, normalized to Norm_0): 0.967
PGM1.R.V Average (Norm_5, normalized to Norm_0): 1.019
PHLPP.R.V Average (Norm_5, normalized to Norm_0): 1.011
PI3K.p85.R.C Average (Norm_5, normalized to Norm_0): 0.931
PI3K.p110.a.R.C Average (Norm_5, normalized to Norm_0): 1.007
PI3K.p110.b.M.C Average (Norm_5, normalized to Norm_0): 0.980
PKA.a.R.V Average (Norm_5, normalized to Norm_0): 1.083
PKC.a.b.II_pT638_T641.R.V Average (Norm_5, normalized to Norm_0): 0.910
PKC.b.II_pS660.R.V Average (Norm_5, normalized to Norm_0): 1.083
PKCa.R.V Average (Norm_5, normalized to Norm_0): 1.160
PLC.gamma1.R.V Average (Norm_5, normalized to Norm_0): 1.065
PLC.gamma1_pS1248.R.V Average (Norm_5, normalized to Norm_0): 1.197
PLC.gamma2_pY759.R.V Average (Norm_5, normalized to Norm_0): 0.941
PLK1.R.C Average (Norm_5, normalized to Norm_0): 0.892
PMS2.R.V Average (Norm_5, normalized to Norm_0): 0.916
PR.R.V Average (Norm_5, normalized to Norm_0): 0.959
PRAS40.M.C Average (Norm_5, normalized to Norm_0): 0.988
PRC1_pT481.R.C Average (Norm_5, normalized to Norm_0): 0.915
Patched.R.C Average (Norm_5, normalized to Norm_0): 1.046
Paxillin.R.C Average (Norm_5, normalized to Norm_0): 1.013
Pdcd4.R.C Average (Norm_5, normalized to Norm_0): 1.126
Porin.M.V Average (Norm_5, normalized to Norm_0): 0.959
p21.R.C Average (Norm_5, normalized to Norm_0): 0.958
p27.Kip1.R.C Average (Norm_5, normalized to Norm_0): 0.986
p27_pT157.R.C Average (Norm_5, normalized to Norm_0): 1.081
p27_pT198.R.V Average (Norm_5, normalized to Norm_0): 1.051
p38.MAPK._pT180_Y182.R.V Average (Norm_5, normalized to Norm_0): 1.202
p38.a.M.V Average (Norm_5, normalized to Norm_0): 0.984
p44.42.MAPK.R.V Average (Norm_5, normalized to Norm_0): 1.160
p53.R.C Average (Norm_5, normalized to Norm_0): 1.083
p70.S6K1.R.V Average (Norm_5, normalized to Norm_0): 1.109
p90RSK_pT573.R.C Average (Norm_5, normalized to Norm_0): 0.871
PREX1.R.V normalized RPPA signal [2]: 1.167 and 1.060 and 1.135 and 1.121
PTEN.R.V normalized RPPA signal [2]: 1.061 and 1.012 and 1.047
PTPN12.R.V normalized RPPA signal [2]: 1.010 and 0.988 and 1.023
PYGB.R.V normalized RPPA signal [2]: 1.017 and 1.164 and 0.766 and 0.982
PYGM.M.C normalized RPPA signal [2]: 0.997 and 1.153 and 0.846 and 0.999
Puma.R.C normalized RPPA signal [2]: 1.064 and 1.136 and 0.836 and 1.012
Pyk2_pY402.R.C normalized RPPA signal [2]: 1.133 and 1.024 and 1.065
RBM15.R.V normalized RPPA signal [2]: 0.984 and 1.128
RIP3.R.C normalized RPPA signal [2]: 1.061 and 1.027 and 1.055 and 1.048
RIP.R.C normalized RPPA signal [2]: 0.916 and 0.977 and 0.799 and 0.897
RPA32.R.V normalized RPPA signal [2]: 1.150 and 0.846 and 1.011
RPA32_pS4_S8.R.C normalized RPPA signal [2]: 1.171 and 1.234 and 0.878
RRM1.R.C normalized RPPA signal [2]: 0.936 and 0.952 and 0.975
RRM2.R.C normalized RPPA signal [2]: 0.907 and 1.001 and 0.922 and 0.943

Source: PMC9127750, “Structure-based design of CDC42 effector interaction inhibitors for the treatment of cancer” (Cell reports, 2022)
